Where two headings read alike, the source gives them in different places.
How the values were obtained:
[1] = system: aspirin-induced gastric ulcers; assay: aspirin-induced gastric ulcers in rats; format: in vivo, male Sprague-Dawley rats; conditions: for inhibition of gastric erosions: aspirin treated rats; for % Ulcer Inhibition: Table 1
Method: (§1) The following experiment was carried out to evaluate thromboxane receptor involvement in other models of gastro-intestinal ulcer.
[…] In each of these experiments, a dose of SQ 33,961 or vehicle (9.5% ethanol in 0.02% Na2 CO3, pH 9; 5 mL/kg) was administered by intraperitoneal injection 60 minutes before administration of aspirin, aspirin vehicle (1% methyl cellulose; 5 mL/kg, p.o.), indomethacin, or indomethacin vehicle (3.2% Na2 CO3, pH 8; 5 mL/kg, s.c.) in fasted male Sprague-Dawley rats (174-352 g). Three hours later, the rats were sacrificed by CO2 asphyxiation, the stomachs excised and opened, the lumen rinsed with saline, and the number and areas of gastric lesions measured.
*Aspirin Dose = 200 mg/kg, p.o. 1 hour after dosing with Test Agent. Rats
were sacrificed and ulcers measured 3 hours after aspirin administration.

[2] = system: indomethacin-induced gastric ulcers; format: in vivo, male Sprague-Dawley rats; conditions: for inhibition of gastric erosions: indomethacin treated rats; for % Ulcer Inhibition: Table 1
Method: as §1
In two studies, SQ 33,961 (1 and 10 mg/kg, i.p.) was evaluated in models of gastric ulcer induced by indomethacin (20 mg/kg, s.c.) and aspirin (200 mg/kg, p.o.). In each of these experiments, a dose of SQ 33,961 or vehicle (9.5% ethanol in 0.02% Na2 CO3, pH 9; 5 mL/kg) was administered by intraperitoneal injection 60 minutes before administration of aspirin, aspirin vehicle (1% methyl cellulose; 5 mL/kg, p.o.), indomethacin, or indomethacin vehicle (3.2% Na2 CO3, pH 8; 5 mL/kg, s.c.) in fasted male Sprague-Dawley rats (174-352 g). Three hours later, the rats were sacrificed by CO2 asphyxiation, the stomachs excised and opened, the lumen rinsed with saline, and the number and areas of gastric lesions measured.

carrageenan paw edema = carrageenan paw edema model in rats; format: in vivo; conditions: for effect on development of paw edema (in words): 10 mg/kg i.p.; for Paw Volume 3 hours after Carrageenan injection: SQ 33,961 10 mg/kg i.p. and/or indomethacin 10 mg/kg i.p., 7-8 rats
Method: Paw volumes were measured before and hourly after carageenan injection in the 4 groups (N=7-8 each).

[3] = system: taurocholic acid-induced ulcers; assay: taurocholic acid-induced gastric ulcers in rats; format: in vivo; conditions: i.p.
Method: The following experiment was conducted to determine the cytoprotective potential of the thromboxane receptor antagonist SQ 33,961 on taurocholic acid-induced ulcers in rats.
Fasted rats were treated with either vehicle (9.5% ethanol in 0.02% Na2 CO3, pH 9; 5 mL/kg, i.p.) or SQ 33,961 (0.01 to 10 mg/kg, i.p.) 60 minutes before administration of either vehicle (0.2N HCl, pH 2; 1.0 mL, p.o.) or taurocholic acid (100 mM, pH 2; 1.0 mL, p.o.). One hour later, rats were sacrificed and gastric lesion number and areas measured. There were no gastric erosions in the groups of rats challenged with the taurocholic acid vehicle.

## O=C(O)Cc1ccc(CCNS(=O)(=O)c2ccc(Cl)cc2)cc1 [BM 13,505, 4-[2-(4-chlorobenzenesulfonamido)ethyl]phenylacetic acid, reference compound]
[1]; 20.00 mg/kg, i.p., N=9, Table 3, aspirin 200 mg/kg, p.o., vehicle 11.18 ± 2.35
  Average Gastric Lesion Area: 4.68 ± 1.63 mm^2
[1]; aspirin 200 mg/kg, p.o.
  effect on aspirin-induced gastric erosions (in words): significantly diminished aspirin-induced gastric erosions

## COc1ccc2c(c1)c(CC(=O)O)c(C)n2C(=O)c1ccc(Cl)cc1 [Indomethacin, reference compound]
[2]; Indomethacin (20 mg/kg, s.c.) + Vehicle (CONTROL), 16 rats, text calls it lesion area in mm^2
  Gastric lesion area (mm^2): 2.90 ± 0.81
[2]; indomethacin 20 mg/kg, s.c., three hours, N=16
  Average total lesion area: 2.9±0.8 mm^2
Carrageenan paw edema
  effect on development of paw edema (in words): significantly inhibited edema formation
  Paw Volume 3 hours after Carrageenan injection: 2.2 ± 0.08 mL

## O=C(O)CCc1ccccc1C[C@@H]1[C@H](c2nc(C(=O)NCCCCC3CCCCC3)co2)[C@H]2CC[C@@H]1O2 [SQ 33,961, [1S-(1α,2α,3α,4α)]-2-[[3-[4-[[(4-cyclohexylbutyl)amino]carbonyl]-2-oxazolyl]-7-oxabicyclo[2.2.1]hept-2-yl]methyl]benzenepropanoic acid]
[2]; 1 mg/kg, i.p.
  inhibition of gastric erosions: about 70%
[2]; 10 mg/kg, i.p.
  inhibition of gastric erosions: ~95%
[2]; Indomethacin (20 mg/kg, s.c.) + 1 mg/kg, i.p., 15 rats
  Gastric lesion area (mm^2): 0.94 ± 0.41
[2]; Indomethacin (20 mg/kg, s.c.) + 1 mg/kg, i.p.
  % Ulcer Inhibition: 68%
[2]; Indomethacin (20 mg/kg, s.c.) + 10 mg/kg, i.p., 15 rats
  Gastric lesion area (mm^2): 0.08 ± 0.07
[2]; Indomethacin (20 mg/kg, s.c.) + 10 mg/kg, i.p.
  % Ulcer Inhibition: 97%
[3]; 0.01 to 10 mg/kg
  reduction of gastric lesion area (in words): dose-related reduction of gastric lesion area
[3]; Rattus norvegicus, ip, 1 h, 60 minutes before taurocholic acid (100 mM, pH 2; 1.0 mL, p.o.), measured one hour later, read-out: ID50, reduction of gastric lesion area
  ED50: 0.012 mg/kg
Carrageenan paw edema
  effect on development of paw edema (in words): no significant effect on the development of paw edema
  Paw Volume 3 hours after Carrageenan injection: 2.6 ± 0.11 mL
Carrageenan paw edema; SQ 33,961 10 mg/kg i.p., indomethacin 10 mg/kg i.p.
  effect on antiphlogistic activity of indomethacin (in words): this antiphlogistic activity was not inhibited
[1]; 0.1 mg/kg, i.p., N=6, Table 3, aspirin 200 mg/kg, p.o.
  Average Gastric Lesion Area: 6.21 ± 1.66 mm^2
[1]; 1.0 mg/kg, i.p., N=9, Table 3, aspirin 200 mg/kg, p.o.
  Average Gastric Lesion Area: 2.86 ± 1.02 mm^2
[1]; 1 mg/kg, i.p.
  inhibition of gastric erosions: about 70%
[1]; 10.0 mg/kg, i.p., N=9, Table 3, aspirin 200 mg/kg, p.o.
  Average Gastric Lesion Area: 0.62 ± 0.34 mm^2
[1]; 10 mg/kg, i.p.
  inhibition of gastric erosions: ~95%
[1]; Aspirin (200 mg/kg, p.o.) + 1 mg/kg, i.p., 9 rats
  Average Gastric Lesion Area: 2.86 ± 1.02
[1]; Aspirin (200 mg/kg, p.o.) + 1 mg/kg, i.p.
  % Ulcer Inhibition: 73%
[1]; Aspirin (200 mg/kg, p.o.) + 10 mg/kg, i.p., 9 rats
  Average Gastric Lesion Area: 0.62 ± 0.34
[1]; Aspirin (200 mg/kg, p.o.) + 10 mg/kg, i.p.
  % Ulcer Inhibition: 94%
[1]; aspirin 200 mg/kg, p.o.
  effect on aspirin-induced gastric erosions (in words): dose related reductions in gastric erosions

## CC(=O)Oc1ccccc1C(=O)O [Aspirin, reference compound]
[1]; Aspirin (200 mg/kg, p.o.) + Vehicle (CONTROL), 11 rats, text calls it lesion area in mm^2
  Average Gastric Lesion Area: 10.5 ± 2.01
[1]; aspirin 200 mg/kg, p.o. versus indomethacin 20 mg/kg, s.c.
  severity of gastric lesions (in words): more severe gastric lesions than indomethacin
[1]; aspirin 200 mg/kg, p.o., three hours, N=11
  Average total lesion area: 10.5±2.1 mm^2

## O=C(O)c1ccc(OCCn2ccnc2)cc1 [Dazoxiben, reference compound]
[1]; 50.0 mg/kg, i.p., N=6, Table 3, aspirin 200 mg/kg, p.o.
  Average Gastric Lesion Area: 25.40 ± 8.50 mm^2
[1]; aspirin 200 mg/kg, p.o.
  effect on aspirin-induced gastric erosions (in words): did not diminish aspirin-induced gastric erosions

Source: US5312818A, “Method of protecting against and/or treating ulcerative gastrointestinal conditions using a thromboxane A2 receptor antagonist and combination useful in preventing and/or treating ulcers and/or inflammation” (E. R. Squibb & Sons, Inc., priority 1992, dated 1994)
